Laboratory results from article PMC11822212, “High-throughput screening identifies Aurora kinase B as a critical therapeutic target for Merkel cell carcinoma” (Nature Communications, 2025).
Where a name gives a salt, the structure may show the parent alone.

Columns and labels:
[1] = test system: VP-MCC cell lines (WAGA, MKL-1, MKL-2); test: qHTS cell viability, VP-MCC cell lines as a group (mean AUC, VP.MCC.avg); assay type: cell-based, human; conditions: NPC library; for VP-MCC_Avg_AUC: mean AUC of VP-MCC cell lines
MKL-2 cells (VP-MCC) = test: qHTS cell viability (CellTiter-Glo, 72 h; primary and follow-up small molecule screen); assay type: cell-based, human; conditions: for MKL2_AUC: NPC library
[2] = test system: VN-MCC cell lines (MCC13, MCC26, UISO); test: qHTS cell viability, VN-MCC cell lines as a group (mean AUC, VN.MCC.avg); assay type: cell-based, human; conditions: NPC library; for VN-MCC_Avg_AUC: mean AUC of VN-MCC cell lines
CRL-7250 cells = test: qHTS cell viability (CellTiter-Glo, 72 h; primary screen), control cell line; assay type: cell-based; conditions: NPC library
WAGA cells (VP-MCC) = test: qHTS cell viability (CellTiter-Glo, 72 h; primary and follow-up small molecule screen); assay type: cell-based, human; conditions: for WAGA_AUC: NPC library
MCC13 cells (VN-MCC) = test: as above; assay type: cell-based, human; conditions: for MCC13_AUC: NPC library
HACAT cells = test: qHTS cell viability (CellTiter-Glo, 72 h; primary screen), control cell line; assay type: cell-based, human; conditions: NPC library
UISO cells (VN-MCC) = test: qHTS cell viability (CellTiter-Glo, 72 h; primary and follow-up small molecule screen); assay type: cell-based, human; conditions: for UISO_AUC: NPC library
MCC26 cells (VN-MCC) = test: as above; assay type: cell-based, human; conditions: for MCC26_AUC: NPC library
[3] = test system: control cell lines (HACAT, HEK293T, CRL-7250, NIH-3T3); test: qHTS cell viability, control cell lines as a group (mean AUC, Control.avg); assay type: cell-based; conditions: NPC library; mean AUC of control cell lines
[4] = test system: MCC cell lines (WAGA, MKL-1, MKL-2, MCC13, MCC26, UISO); test: qHTS cell viability, all six MCC cell lines as a group (mean AUC, MCC.avg); assay type: cell-based, human; conditions: NPC library; mean AUC of six MCC cell lines
HEK293T cells = test: qHTS cell viability (CellTiter-Glo, 72 h; primary screen), control cell line; assay type: cell-based, human; conditions: NPC library
MKL-1 cells (VP-MCC) = test: qHTS cell viability (CellTiter-Glo, 72 h; primary and follow-up small molecule screen); assay type: cell-based, human; conditions: for MKL1_AUC: NPC library
[5] = test system: six MCC cell lines and four control cell lines; test: qHTS cell viability, all 10 cell lines screened; assay type: cell-based; conditions: NPC library
NIH-3T3 cells = test: qHTS cell viability (CellTiter-Glo, 72 h; primary screen), control cell line; assay type: cell-based, mouse; conditions: NPC library
[6] = therapeutic window: Control avg AUC minus VP-MCC avg AUC
[7] = therapeutic window: Control avg AUC minus VN-MCC avg AUC
[8] = qHTS dose-response AUC, CRL7250 control
[9] = qHTS dose-response AUC, HACAT control
[10] = qHTS dose-response AUC, HEK293T control
[11] = therapeutic window: Control avg AUC minus MCC avg AUC
[12] = qHTS dose-response AUC, NIH3T3 control
[13] = 8-point DRC, area under dose-response curve

Structure (SMILES) | VP-MCC_Avg_AUC [1] | Control-VP-MCC [1, 6] | MKL2_AUC (MKL-2 cells (VP-MCC); qHTS dose-response AUC, MKL2) | VN-MCC_Avg_AUC [2] | Control-VN-MCC [2, 7] | CRL7250_AUC (CRL-7250 cells; [8]) | WAGA_AUC (WAGA cells (VP-MCC); qHTS dose-response AUC, WAGA) | MCC13_AUC (MCC13 cells (VN-MCC); qHTS dose-response AUC, MCC13) | HACAT_AUC (HACAT cells; [9]) | UISO_AUC (UISO cells (VN-MCC); qHTS dose-response AUC, UISO) | MCC26_AUC (MCC26 cells (VN-MCC); qHTS dose-response AUC, MCC26) | Control_Avg_AUC [3] | MCC_Avg_AUC [4] | HEK293T_AUC (HEK293T cells; [10]) | MKL1_AUC (MKL-1 cells (VP-MCC); qHTS dose-response AUC, MKL1) | Control-MCC [5, 11] | NIH3T3_AUC (NIH-3T3 cells; [12]) | further results
O=C(CCN1CCC(c2ccccc2)C1)c1ccc2c(c1)OCCO2 (centres unmarked) [Proroxan] | 394.094 | 67.3656 | 379.094 | 486.553 | -25.0934 | 469.26 | 401.693 | 464.203 | 483.91 | 463.935 | 531.522 | 461.46 | 440.324 | 432.979 | 401.495 | 21.1361 | 459.69 | Area under the dose-response curve (AUC) MKL-2 Replicate 1 (MKL-2 cells (VP-MCC); follow-up screen, MKL-2, replicate 1): 423.0; Area under the dose-response curve (AUC) MKL-2 Replicate 2 (MKL-2 cells (VP-MCC); follow-up screen, MKL-2, replicate 2): 412.3; Area under the dose-response curve (AUC) MKL-2 Replicate 3 (MKL-2 cells (VP-MCC); follow-up screen, MKL-2, replicate 3): 429.1; Area under the dose-response curve (AUC) WAGA Replicate 1 (WAGA cells (VP-MCC); follow-up screen, WAGA, replicate 1): 471.3; Area under the dose-response curve (AUC) WAGA Replicate 2 (WAGA cells (VP-MCC); follow-up screen, WAGA, replicate 2): 460.1; Area under the dose-response curve (AUC) WAGA Replicate 3 (WAGA cells (VP-MCC); follow-up screen, WAGA, replicate 3): 475.6; Area under the dose-response curve (AUC) MCC13 Replicate 1 (MCC13 cells (VN-MCC); follow-up screen, MCC13, replicate 1): 493.7; Area under the dose-response curve (AUC) MCC13 Replicate 2 (MCC13 cells (VN-MCC); follow-up screen, MCC13, replicate 2): 500.7; Area under the dose-response curve (AUC) MCC13 Replicate 3 (MCC13 cells (VN-MCC); follow-up screen, MCC13, replicate 3): 474.6; Area under the dose-response curve (AUC) UISO Replicate 1 (UISO cells (VN-MCC); follow-up screen, UISO, replicate 1): 440.8; Area under the dose-response curve (AUC) UISO Replicate 2 (UISO cells (VN-MCC); follow-up screen, UISO, replicate 2): 468.5; Area under the dose-response curve (AUC) UISO Replicate 3 (UISO cells (VN-MCC); follow-up screen, UISO, replicate 3): 484.4; Area under the dose-response curve (AUC) MCC26 Replicate 1 (MCC26 cells (VN-MCC); follow-up screen, MCC26, replicate 1): 461.4; Area under the dose-response curve (AUC) MCC26 Replicate 2 (MCC26 cells (VN-MCC); follow-up screen, MCC26, replicate 2): 445.0; Area under the dose-response curve (AUC) MCC26 Replicate 3 (MCC26 cells (VN-MCC); follow-up screen, MCC26, replicate 3): 478.9; Area under the dose-response curve (AUC) MKL-1 Replicate 1 (MKL-1 cells (VP-MCC); follow-up screen, MKL-1, replicate 1): 420.7; Area under the dose-response curve (AUC) MKL-1 Replicate 2 (MKL-1 cells (VP-MCC); follow-up screen, MKL-1, replicate 2): 440.6; Area under the dose-response curve (AUC) MKL-1 Replicate 3 (MKL-1 cells (VP-MCC); follow-up screen, MKL-1, replicate 3): 412.1
Oc1ccc(C2CNCCc3c2cc(O)c(O)c3Cl)cc1 (centres unmarked) [Fenoldopam] | 447.83 |  |  | 440.711 |  |  |  |  |  |  |  | 491.543 | 444.271 |  |  |  |  | Control-VP-MCC ([1]; Control AUC minus VP-MCC AUC (therapeutic window)): 43.713; MKL2_AUC (MKL-2 cells (VP-MCC); [13]): 452.751; Control-VN-MCC ([2]; Control AUC minus VN-MCC AUC (therapeutic window)): 50.8323; CRL7250_AUC (CRL-7250 cells; 8-point DRC, control cell line): 492.55; WAGA_AUC (WAGA cells (VP-MCC); [13]): 438.933; MCC13_AUC (MCC13 cells (VN-MCC); [13]): 446.053; HACAT_AUC (HACAT cells; 8-point DRC, control cell line): 491.95; UISO_AUC (UISO cells (VN-MCC); [13]): 438.854; MCC26_AUC (MCC26 cells (VN-MCC); [13]): 437.226; HEK293T_AUC (HEK293T cells; 8-point DRC, control cell line): 492.113; MKL1_AUC (MKL-1 cells (VP-MCC); [13]): 451.807; Control-MCC ([5]; Control AUC minus MCC AUC (therapeutic window)): 47.2727; NIH3T3_AUC (NIH-3T3 cells; 8-point DRC, control cell line): 489.56
CCOC(=O)[C@@](C)(N)Cc1ccc(O)c(O)c1 [Methyldopate hydrochloride] | 389.202 | 52.6846 | 398.602 | 434.044 | 7.843 | 412.089 | 402.509 | 447.588 | 480.325 | 416.553 | 437.99 | 441.887 | 411.623 | 443.954 | 366.496 | 30.264 | 431.18 | 
C[C@@H]1CN(CCCn2c3ccccc3c3ccccc32)C[C@H](C)N1.Cl.Cl [Rimcazole dihydrochloride] | 379.963 | 70.5333 | 350.893 | 450.226 | 0.27 | 463.168 | 396.152 | 472.84 | 421.634 | 420.46 | 457.379 | 450.496 | 415.095 | 453.163 | 392.844 | 35.4016 | 464.02 | 
